{
  "source": "patent US9486493B2",
  "about": "“Use of a peptide and an analgesic pharmaceutical agent” (priority 2007, dated 2016)",
  "key": {"[1]": {"details": "intravenous administration; cited from earlier work"}, "[2]": {"details": "directly into the subarachnoid space (intrathecal), rats; cited from earlier work"}, "[3]": {"system": "pain reaction in mice with inflammation", "assay": "Animal pain model of tumour metastasis (human ovarian cancer cells into a rear limb), tail dipping in 55° C water", "assay_type": "in vivo", "details": "for dose necessitated for a similar analgesic effect: control group lacking the inflammation; for analgesic activity (pain reaction): mice with inflammation, after two weeks", "procedure": "(§1) In an animal pain model of tumour metastasis, inflammation was induced though the injection of a million human ovarian cancer cells into a rear limb. After two days, we observed a progressing inflammation induced by tumour take. The analgesic activity of biphaline was observed after two weeks, during acute pain caused by tail dipping in water at a temperature of 55° C. […] In the control group, which lacked the inflammation, a similar analgesic effect necessitated the use of a dose of 1 mg/kg.\nas §1, with “(Tyr-Ser-Gly-Phe-NH—)2” for “biphaline”, “4” for “1”"}, "[4]": {"system": "acute pain in rat with inflammation", "assay": "Animal rheumatoid inflammation model (Mycobacterium butyricum into the tarsal joint), thermal stimulation of the tail", "assay_type": "in vivo", "details": "for antinociceptive effects: control group; for analgesic effect on acute pain: rat with inflammation, 0.5 mg/kg, after two weeks", "procedure": "In an animal rheumatoid inflammation model, an anaesthetised rat was injected with homogenates of thermically inactivated Mycobacterium butyricum suspended in sunflower oil at a volume ratio of 1:1 into the tarsal joint. After two weeks inflammation was observed. The analgesic effect on acute pain was observed using thermal stimulation of the tail."}, "[5]": {"system": "pain reaction in mice with inflammation", "assay": "Freund's adjuvant limb inflammation in mice, acute pain by tail dipping in 55° C water", "assay_type": "in vivo", "procedure": "Inflammation was induced in mice through the administration of Freund's adjuvant into a limb. After two days, a progressing inflammation was observed. The analgesic activity of biphalin was observed following a week, during acute pain caused by tail dipping in water at a temperature of 55° C."}, "[6]": {"details": "humans; cited from earlier work"}},
  "note": "Where no end group is shown, it is not given here.",
  "data": [
    {"compound": "C[C@@H](NC(=O)[C@@H](N)Cc1ccc(O)cc1)C(=O)NCC(=O)N[C@@H](Cc1ccccc1)C(=O)NNC(=O)[C@H](Cc1ccccc1)NC(=O)CNC(=O)[C@@H](C)NC(=O)[C@@H](N)Cc1ccc(O)cc1", "note": "[biphalin]", "values": [
      {"measurement": "activity relative to morphine", "setting": "[1]", "value": "equivalent to that of morphine"},
      {"measurement": "activity relative to morphine administered the same way", "setting": "[2]", "value": "~1000", "unit": "fold"},
      {"measurement": "dose necessitated for a similar analgesic effect", "setting": "[3]", "value": 1, "unit": "mg/kg"},
      {"measurement": "analgesic activity (pain reaction)", "setting": "[3]; 100 μg/kg intraperitoneal", "value": "complete disappearance of the pain reaction"},
      {"measurement": "antinociceptive effects", "setting": "[4]; same amount (0.5 mg/kg)", "value": "no antinociceptive effects were observed"},
      {"measurement": "analgesic effect on acute pain", "setting": "[4]", "value": "completely blocked pain effects"},
      {"measurement": "analgesic activity (pain reaction)", "setting": "[5]; control group lacking the inflammation, same dose 50 μg/kg intravenous", "value": "no effect was observed"},
      {"measurement": "analgesic activity (pain reaction)", "setting": "[5]; mice with inflammation, 50 μg/kg intravenous, one week after Freund's adjuvant", "value": "complete disappearance of the pain reaction"}
    ]},
    {"compound": "CN1CC[C@]23c4c5ccc(O)c4O[C@H]2[C@@H](O)C=C[C@H]3[C@H]1C5", "note": "[morphine]", "values": [
      {"measurement": "minimum effective dose usually used as an initial analgesic dose", "setting": "[6]", "value": 1, "unit": "mg"}
    ]},
    {"compound": "(Tyr-D-Thr-Gly-Trp-NH—)2", "values": [
      {"measurement": "antinociceptive effects", "setting": "[4]; after administration of 4 mg/kg", "value": "no antinociceptive effects were observed"},
      {"measurement": "analgesic effect on acute pain", "setting": "[4]", "value": "completely blocked pain effects"}
    ]},
    {"compound": "(Tyr-Ser-Gly-Phe-NH—)2 (YSGF; also: dimer linked via C-terminal NH hydrazide bridge) [opioid peptide, analogue of biphalin]", "values": [
      {"measurement": "dose necessitated for a similar analgesic effect", "setting": "[3]", "value": 4, "unit": "mg/kg"},
      {"measurement": "analgesic activity (pain reaction)", "setting": "[3]; 50 μg/kg intraperitoneal", "value": "complete disappearance of the pain reaction"}
    ]}
  ]
}
